How the values were obtained:
liver = conditions: classification of the substance (Cr+/Cr−); cited from earlier work
[1] = classification of the substance (M+/M−); cited from earlier work
[2] = test system: mRNA expressed from the genes (A) to (D) in rat liver; experiment: Behavior of genes (mRNA expression level, oligo-DNA microarray) in rat liver after 28-day oral administration; format: in vivo; conditions: mRNA vs vehicle control group; for Behavior of gene caused by administration of chemical substance, Gene No. 4846 / Behavior of gene caused by administration of chemical substance, Gene No. 2026 / Behavior of gene caused by administration of chemical substance, Gene No. 4218 / Behavior of gene caused by administration of chemical substance, Gene No. 6182 / Behavior of gene caused by administration of chemical substance, Gene No. 5600: gene group (A); for Behavior of gene caused by administration of chemical substance, Gene No. 4846: Unigene No. Rn.144554; for Behavior of gene caused by administration of chemical substance, Gene No. 2026 / Behavior of gene caused by administration of chemical substance, Gene No. 4218: Unigene No. Rn.167075; for Behavior of gene caused by administration of chemical substance, Gene No. 6182: Unigene No. Rn.5834; for Behavior of gene caused by administration of chemical substance, Gene No. 5600: Unigene No. Rn.9836; for Behavior of gene caused by administration of chemical substance, Gene No. 1494 / Behavior of gene caused by administration of chemical substance, Gene No. 2045 / Behavior of gene caused by administration of chemical substance, Gene No. 2203: gene group (B); for Behavior of gene caused by administration of chemical substance, Gene No. 1494: Unigene No. Rn.1430; for Behavior of gene caused by administration of chemical substance, Gene No. 2045: Unigene No. Rn.19329; for Behavior of gene caused by administration of chemical substance, Gene No. 2203: Unigene No. Rn.21240; for Behavior of gene caused by administration of chemical substance, Gene No. 533 / Behavior of gene caused by administration of chemical substance, Gene No. 725 / Behavior of gene caused by administration of chemical substance, Gene No. 1163 / Behavior of gene caused by administration of chemical substance, Gene No. 4973 / Behavior of gene caused by administration of chemical substance, Gene No. 4095 / Behavior of gene caused by administration of chemical substance, Gene No. 1334 / Behavior of gene caused by administration of chemical substance, Gene No. 6620 / Behavior of gene caused by administration of chemical substance, Gene No. 6303 / Behavior of gene caused by administration of chemical substance, Gene No. 5878 / Behavior of gene caused by administration of chemical substance, Gene No. 1131 / Behavior of gene caused by administration of chemical substance, Gene No. 1562 / Behavior of gene caused by administration of chemical substance, Gene No. 1741 / Behavior of gene caused by administration of chemical substance, Gene No. 893 / Behavior of gene caused by administration of chemical substance, Gene No. 6026 / Behavior of gene caused by administration of chemical substance, Gene No. 154 / Behavior of gene caused by administration of chemical substance, Gene No. 1993 / Behavior of gene caused by administration of chemical substance, Gene No. 813 / Behavior of gene caused by administration of chemical substance, Gene No. 2494 / Behavior of gene caused by administration of chemical substance, Gene No. 2546 / Behavior of gene caused by administration of chemical substance, Gene No. 3776 / Behavior of gene caused by administration of chemical substance, Gene No. 3929 / Behavior of gene caused by administration of chemical substance, Gene No. 1119 / Behavior of gene caused by administration of chemical substance, Gene No. 6742 / Behavior of gene caused by administration of chemical substance, Gene No. 5634: gene group (C); for Behavior of gene caused by administration of chemical substance, Gene No. 533: Unigene No. Rn.106184; for Behavior of gene caused by administration of chemical substance, Gene No. 725: Unigene No. Rn.108075; for Behavior of gene caused by administration of chemical substance, Gene No. 1163: Unigene No. Rn.11766; for Behavior of gene caused by administration of chemical substance, Gene No. 4973: Unigene No. Rn.118529; for Behavior of gene caused by administration of chemical substance, Gene No. 4095: Unigene No. Rn.119024; for Behavior of gene caused by administration of chemical substance, Gene No. 1334 / Behavior of gene caused by administration of chemical substance, Gene No. 6620: Unigene No. Rn.120914; for Behavior of gene caused by administration of chemical substance, Gene No. 6303: Unigene No. Rn.123063; for Behavior of gene caused by administration of chemical substance, Gene No. 5878: Unigene No. Rn.143213; for Behavior of gene caused by administration of chemical substance, Gene No. 1131: Unigene No. Rn.144946; for Behavior of gene caused by administration of chemical substance, Gene No. 1562: Unigene No. Rn.14744; for Behavior of gene caused by administration of chemical substance, Gene No. 1741: Unigene No. Rn.1647; for Behavior of gene caused by administration of chemical substance, Gene No. 893: Unigene No. Rn.164817; for Behavior of gene caused by administration of chemical substance, Gene No. 6026: Unigene No. Rn.167685; for Behavior of gene caused by administration of chemical substance, Gene No. 154: Unigene No. Rn.185941; for Behavior of gene caused by administration of chemical substance, Gene No. 1993: Unigene No. Rn.18728; for Behavior of gene caused by administration of chemical substance, Gene No. 813: Unigene No. Rn.201760; for Behavior of gene caused by administration of chemical substance, Gene No. 2494: Unigene No. Rn.23969; for Behavior of gene caused by administration of chemical substance, Gene No. 2546: Unigene No. Rn.24561; for Behavior of gene caused by administration of chemical substance, Gene No. 3776: Unigene No. Rn.43232; for Behavior of gene caused by administration of chemical substance, Gene No. 3929: Unigene No. Rn.4620; for Behavior of gene caused by administration of chemical substance, Gene No. 1119: Unigene No. Rn.9757; for Behavior of gene caused by administration of chemical substance, Gene No. 6742: Unigene No. Rn.9779; for Behavior of gene caused by administration of chemical substance, Gene No. 5634: Unigene No. Rn.9862; for Behavior of gene caused by administration of chemical substance, Gene No. 5726: gene group (D), Unigene No. Rn.9939
Outline: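 Male F344 SPF rats, 5 weeks old, four per group, received carcinogens, non-carcinogens or solvent vehicle by oral gavage once daily for 28 days. Liver total RNA was then extracted. Changes of ≥1.5-fold or ≤1/1.5 versus vehicle control, in a consistent direction across carcinogens, counted as significant.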

rodent = conditions: classification of the substance (C+/C−); cited from earlier work

| SMILES | Liver carcinogenicity (liver) | Mutagenicity by Ames test [1] | Behavior of gene caused by administration of chemical substance, Gene No. 4846 [2] | Behavior of gene caused by administration of chemical substance, Gene No. 2026 [2] | Behavior of gene caused by administration of chemical substance, Gene No. 4218 [2] | Behavior of gene caused by administration of chemical substance, Gene No. 6182 [2] | Behavior of gene caused by administration of chemical substance, Gene No. 5600 [2] | Behavior of gene caused by administration of chemical substance, Gene No. 1494 [2] | Behavior of gene caused by administration of chemical substance, Gene No. 2045 [2] | Behavior of gene caused by administration of chemical substance, Gene No. 2203 [2] | Behavior of gene caused by administration of chemical substance, Gene No. 533 [2] | Behavior of gene caused by administration of chemical substance, Gene No. 725 [2] | Behavior of gene caused by administration of chemical substance, Gene No. 1163 [2] | Behavior of gene caused by administration of chemical substance, Gene No. 4973 [2] | Behavior of gene caused by administration of chemical substance, Gene No. 4095 [2] | Behavior of gene caused by administration of chemical substance, Gene No. 1334 [2] | Behavior of gene caused by administration of chemical substance, Gene No. 6620 [2] | Behavior of gene caused by administration of chemical substance, Gene No. 6303 [2] | Behavior of gene caused by administration of chemical substance, Gene No. 5878 [2] | Behavior of gene caused by administration of chemical substance, Gene No. 1131 [2] | also measured |
| --- | --- | --- | --- | --- | --- | --- | --- | --- | --- | --- | --- | --- | --- | --- | --- | --- | --- | --- | --- | --- | --- |
| ClC(Cl)=C(Cl)Cl [TS066, Tetrachloroethylene] | Cr− | M− | − | − | − | + | − | − | + | − | + | − | − | − | − | − | − | − | − | − | Behavior of gene caused by administration of chemical substance, Gene No. 1562 [2]: −; Behavior of gene caused by administration of chemical substance, Gene No. 1741 [2]: −; Behavior of gene caused by administration of chemical substance, Gene No. 893 [2]: −; Behavior of gene caused by administration of chemical substance, Gene No. 6026 [2]: −; Behavior of gene caused by administration of chemical substance, Gene No. 154 [2]: −; Behavior of gene caused by administration of chemical substance, Gene No. 1993 [2]: −; Behavior of gene caused by administration of chemical substance, Gene No. 813 [2]: −; Behavior of gene caused by administration of chemical substance, Gene No. 2494 [2]: −; Behavior of gene caused by administration of chemical substance, Gene No. 2546 [2]: −; Behavior of gene caused by administration of chemical substance, Gene No. 3776 [2]: −; Behavior of gene caused by administration of chemical substance, Gene No. 3929 [2]: −; Behavior of gene caused by administration of chemical substance, Gene No. 1119 [2]: −; Behavior of gene caused by administration of chemical substance, Gene No. 6742 [2]: −; Behavior of gene caused by administration of chemical substance, Gene No. 5634 [2]: −; Behavior of gene caused by administration of chemical substance, Gene No. 5726 [2]: −; Carcinogenicity (rodent): C+ |
| CC/C(=C(/CC)c1ccc(O)cc1)c1ccc(O)cc1 [TS068, Diethylstilbestrol] | Cr− | M− | + | − | + | + | + | − | − | − | + | + | + | + | + | + | + | + | + | + | Behavior of gene caused by administration of chemical substance, Gene No. 1562 [2]: +; Behavior of gene caused by administration of chemical substance, Gene No. 1741 [2]: +; Behavior of gene caused by administration of chemical substance, Gene No. 893 [2]: +; Behavior of gene caused by administration of chemical substance, Gene No. 6026 [2]: +; Behavior of gene caused by administration of chemical substance, Gene No. 154 [2]: +; Behavior of gene caused by administration of chemical substance, Gene No. 1993 [2]: +; Behavior of gene caused by administration of chemical substance, Gene No. 813 [2]: +; Behavior of gene caused by administration of chemical substance, Gene No. 2494 [2]: +; Behavior of gene caused by administration of chemical substance, Gene No. 2546 [2]: +; Behavior of gene caused by administration of chemical substance, Gene No. 3776 [2]: +; Behavior of gene caused by administration of chemical substance, Gene No. 3929 [2]: +; Behavior of gene caused by administration of chemical substance, Gene No. 1119 [2]: +; Behavior of gene caused by administration of chemical substance, Gene No. 6742 [2]: +; Behavior of gene caused by administration of chemical substance, Gene No. 5634 [2]: +; Behavior of gene caused by administration of chemical substance, Gene No. 5726 [2]: −; Carcinogenicity (rodent): C+ |
